Here are results for 4 compounds from US5658906A, “Cysteine protease and serine protease inhibitors” (Cephalon, Inc., priority 1996, dated 1997).

Test [1] concerns the target T1, Cathepsin L (Homo sapiens, UniProt P07711).
T1 construct: purchased Calbiochem 219402
As to the kind of experiment: Inhibition and rate of inactivation of cathepsin L (Cbz-Phe-Arg-AMC hydrolysis). Type of test: biochemical. Particulars: pH 6.0, 0.006 mM substrate, read-out: k2 (second order rate constant of inactivation), B = Cathepsin L. As to the method:
Additionally, the order of reagents added to the plate was altered because both enzymes are constitutively active. Following inhibitor addition to the plates appropriate 2× concentrated stock dilutions of the enzyme preparations were made in assay buffer and 100 ul added to each well. The assay was initiated by addition of 100 ul of 2× concentrated stock dilution of substrate in assay buffer. Substrate hydrolysis was monitored using a Fluroskan II (ex=390 nm; em=460 nm).
Inhibition of enzyme activity was calculated as the percent decrease in the rate of substrate hydrolysis in the presence of inhibitor (.upsilon.i) relative to the rate in its absence (.upsilon.o). Comparison between .upsilon.o and .upsilon.i was made within the linear range for substrate hydrolysis. For screening, compounds were tested at 10 μM. Compounds having ≥50% inhibition at 10 μM were considered active. Apparent second order rate constants were determined from analysis of reaction progress curves under pseudo-first order conditions. Each determination represents the mean of three or more independent single cuvette analyses continually monitored via a Perkin-Elmer LS50B spectrofluorimeter. The rate of inhibition of hydrolysis was obtained by fitting the curve to the exponential equation (1):
y=Ae^-k.spsb.obs·t +B (1)
where y (Pt) is the product formed at time t. A and B are constants. A, the amplitude of the reaction, is given by [Po -P.varies. ] and B (=P.varies.) is the maximal product formed when the reaction is […]. This was corrected for the presence of equation (2): […]

In test [2] the test system is calpain I in Molt-4 cells (α-spectrin breakdown products). As to the kind of experiment: Inhibition of calpain activation in intact Molt-4 cells (calpain-generated spectrin breakdown products). The format is cell-based. The settings on record: Homo sapiens, calcium and ionophore (ionomycin), read-out: % Inhibition of BDPs (10 μM).

T1 sequence (P07711 114-333): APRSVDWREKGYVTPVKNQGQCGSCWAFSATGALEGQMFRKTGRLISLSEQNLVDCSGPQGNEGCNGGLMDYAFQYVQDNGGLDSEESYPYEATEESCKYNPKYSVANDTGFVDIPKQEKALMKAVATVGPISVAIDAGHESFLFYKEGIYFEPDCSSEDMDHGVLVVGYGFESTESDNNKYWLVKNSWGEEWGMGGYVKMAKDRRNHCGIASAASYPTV

What is called inhibition is the relative decrease from the control value, in per cent. For the compound `CC[C@H](NC(=O)[C@H](CC(C)C)NC(=O)OCc1ccccc1)C(=O)COn1nnc2ccccc21` [Example 5, 1-[N-[N-Benzyloxycarbonyl-L-leucyl]-3S-3-amino-2-oxopentyloxy] benzotriazole], the kinact/KI in test [1] amounted to 3e+06 M⁻¹ s⁻¹. The inhibition at 10 µM in test [2] stood at 56%.

As for `CC(C)C[C@H](NC(=O)OCc1ccccc1)C(=O)N[C@@H](Cc1ccccc1)C(=O)COn1nnc2cccnc21` [Example 6, 3-[N-[N-Benzyloxycarbonyl-L-leucyl]-3S-4-phenyl-3-amino-2-oxobutyloxy]-3H-triazolo[4,5-b]pyridine], the kinact/KI in test [1] was found to be 40000 M⁻¹ s⁻¹. In addition, in test [2], the inhibition at 10 µM is 63%.

Turning to `CC(C)C[C@H](NC(=O)OCc1ccccc1)C(=O)N[C@@H](Cc1ccccc1)C(=O)COn1nnc2ccccc21` [Example 3, 1-[N-[N-Benzyloxycarbonyl-L-leucyl]-3S-4-phenyl-3-amino-2-oxobutyloxy]benzotriazole], the kinact/KI in test [1] was 100000 M⁻¹ s⁻¹. For the same compound, the inhibition at 10 µM in test [2] came to 67%.

Regarding `CC(C)C[C@H](NC(=O)OCc1ccccc1)C(=O)N[C@@H](Cc1ccccc1)C(=O)COn1nnc2ccccc2c1=O` [Example 28, 1-[N-[N-Benzyloxycarbonyl-L-leucyl]-3S-4-phenyl-3-amino-2-oxobutyloxy]-3-benzotriazin-4-one], the kinact/KI in test [1] was determined as 70000 M⁻¹ s⁻¹. Moreover, in test [2], the inhibition at 10 µM worked out at 68%.
